Measured values as given in patent EP1353624B1, “PHARMACEUTICAL COMPOSITIONS OF A NON-ENTERIC COATED PROTON PUMP INHIBITOR WITH A CARBONATE SALT AND BICARBONATE SALT COMBINATION” (TAP Pharmaceutical Products, Inc., priority 2000, dated 2002).
Where “and” joins values, the source holds several entries; their conditions need not be identical. Equal entries are not always repeated. Where two headings read alike, the source gives them in different places.

How the values were obtained:
[1] = 50 mL SGF
Method: To determine and compare the gastric acid neutralizing capacity of sodium bicarbonate solution to carbicarb solution, the following experiment was performed.
(§1) Aqueous solutions to be tested were made up from starting materials sodium carbonate, (anhydrous, available from Mallinckrodt) and sodium bicarbonate (available from Mallinckrodt). An 8.4% sodium bicarbonate solution and an 8.4% carbicarb solution (containing equimolar amounts of sodium bicarbonate and sodium carbonate) were tested as follows.
50 mL simulated gastric fluid (SGF, prepared according to the procedure described in Example 1) was pipetted into an Erlenmeyer flask. Four drops of methyl red, then four drops of phenolphthalein were then added to the flask. The pH of solution was monitored with a pH electrode. The solution to be tested was added to a 5-mL buret. The gastric media in the flask was then titrated with the test solution to an endpoint within 0.2 pH units of pH 6.5 (as indicated by the color change and pH reading). Then, titration was resumed, to an endpoint within 0.2 pH units of pH 8.0 (as indicated by the color change and pH reading).

[2] = Description: To quantify the gas produced by the neutralization of simulated gastric fluid (SGF) by carbicarb and by sodium bicarbonate in vitro, a standard CO2 assay technique was utilized (see USP 24 -NF 19 Beta, The United States Pharmacopeia 2000, p. 306)
as §1
The specimen gas was generated by reacting either 450 mL simulated gastric fluid (SGF) with 50 mL of the carbicarb solution; or by reacting 45 ml of simulated gastric fluid with 5 ml of sodium bicarbonate solution in a 500 mL Erlenmeyer flask.
To make Simulated Gastric Fluid (SGF) 1 g sodium chloride was transferred to a 500-mL volumetric flask. After adding 1.6 g pepsin, 25 mL 2 N hydrochloric acid was added and swirled to mix. The resultant solution could then be diluted to the appropriate volume with water.
The amount of gas generated in a twenty-minute time period was measured in an Orsat Glass Vapor Absorption Apparatus, by the standard assay technique. Two tests were run for each solution. The volume of CO2 generated was calculated from the difference in the initial volume of gas produced (ml) and the final volume of gas remaining (ml).

[3] = Stability of lansoprazole in simulated gastric fluid (chromatographic assay); type: physicochemical; settings: for % labeled amount of lansoprazole remaining: room temperature; for drug degraded: at 60 minutes in SGF
Method: Lansoprazole degrades in acid and is stable in base. This study was performed to determine 1) how quickly lansoprazole degrades in simulated gastric fluid (SGF); and 2) whether a high pH-buffering agent (carbicarb which is an equimolar mixture of sodium carbonate and sodium bicarbonate) could be used to retard the degradation of lansoprazole in SGF. All the experiments were conducted at room temperature (22°C ± 2°C).
The PPI test sample included lansoprazole (30 mg); mannitol (60 mg), meglumine (30 mg) and sodium hydroxide (3 mg).
Then 5.0 mL 2 N sodium hydroxide solution was added to the 0-minutes beaker with mixing. To each of the 5 remaining beakers, 10.0 mL of 8.4% carbicarb solution was added and stirred to mix. At the appropriate time interval (corresponding to the individual beaker numbers), 5.0 mL 2 N sodium hydroxide solution was added to stop the reaction. A portion of the resulting solution was diluted with pH 10 diluent. 10 µL of the resulting solution was then injected into the chromatographic system for assay.
Granular formulations of lansoprazole, including carbicarb were also made and tested. The stability of the granular formulations was tested according to the procedure of Example 3. The granular formulations of lansoprazole for this example were prepared as follows.
The coherent mass containing lansoprazole, carbicarb, lactose and sucrose solution was prepared as described above, in Example 3. This coherent mass was passed through a 20-mesh screen and the resulting granules were dried at 50°C for 12 hours. Granules containing 30-mg lansoprazole were transferred to an amber color container along with and an equal weight of flavor granules. 10 ml of water ((HPLC grade, Fisher Scientific, Pittsburgh, PA) was added to the container with gentle shaking to reconstitute the suspension. The resulting suspension of Lansoprazole was tested for stability in simulated gastric fluid as described earlier in Experiment 3.

[4] = Storage stability of granules (potency and related substances); type: physicochemical; settings: granules of Examples 4 and 5; 22°C for 21 days in closed containers
Method: Additionally, the granules prepared in Examples 4 and 5 were kept at 22°C for 21 days in closed containers.

[5] = 45 mL SGF and 5 mL test solution, gas generated in twenty minutes
[6] = 450 mL SGF and 50 mL test solution, ten-fold scale-up of the 45 mL/5 mL run

O=C([O-])O.[Na+] [8.4% sodium bicarbonate solution, sodium bicarbonate]
Volume of Acid Neutralizer Solution Required ([1]; pH of simulated gastric fluid after adding neutralizer 1.2): 0 mL | Volume of Acid Neutralizer Solution Required ([1]; pH of simulated gastric fluid after adding neutralizer 2.0): 3.47 mL | Volume of Acid Neutralizer Solution Required ([1]; pH of simulated gastric fluid after adding neutralizer 3.0): 4.09 mL | Volume of Acid Neutralizer Solution Required ([1]; pH of simulated gastric fluid after adding neutralizer 4.0): 4.19 mL | Volume of Acid Neutralizer Solution Required ([1]; pH of simulated gastric fluid after adding neutralizer 5.0): 4.27 mL | Volume of Acid Neutralizer Solution Required ([1]; pH of simulated gastric fluid after adding neutralizer 6.0): 4.48 mL | Volume of Acid Neutralizer Solution Required ([1]; pH of simulated gastric fluid after adding neutralizer 7.0): 5.00 mL | Volume of Acid Neutralizer Solution Required ([1]; pH of simulated gastric fluid after adding neutralizer 8.0): 6.20 mL | volume added into the gastric media to reach the endpoint ([1]; titration endpoint (pH not given; method: pH 6.5, then pH 8.0)): 4.71 mL | Volume of CO2 ([2]; 45 mL SGF and 5 mL test solution, difference of initial and residual gas volume): 2.9 mL and 5.3 mL | Initial Gas Volume [2, 5]: 93.0 mL and 82.0 mL | Residual Gas Volume [2, 5]: 90.1 mL and 76.7 mL | Initial Gas Volume [2, 6]: 930.0 mL and 820.0 mL | Residual Gas Volume [2, 6]: 901.0 mL and 767.0 mL | Volume of CO2 [2, 6]: 29.0 mL and 53.0 mL

Cc1c(OCC(F)(F)F)ccnc1C[S+]([O-])c1nc2ccccc2[nH]1 (stereo not shown) [lansoprazole]
% labeled amount of lansoprazole remaining ([3]; Sample in carbicarb solution, time in SGF 0 minutes): 98.0% | % labeled amount of lansoprazole remaining ([3]; Sample in carbicarb solution, time in SGF 5 minutes): 96.7% | % labeled amount of lansoprazole remaining ([3]; Sample in carbicarb solution, time in SGF 15 minutes): 97.4% | % labeled amount of lansoprazole remaining ([3]; Sample in carbicarb solution, time in SGF 30 minutes): 95.8% | % labeled amount of lansoprazole remaining ([3]; Sample in carbicarb solution, time in SGF 45 minutes): 94.4% | % labeled amount of lansoprazole remaining ([3]; Sample in carbicarb solution, time in SGF 60 minutes): 96.5% | % labeled amount of lansoprazole remaining ([3]; Sample in water, time in SGF 0 minutes): 99.5% | % labeled amount of lansoprazole remaining ([3]; Sample in water, time in SGF 5 minutes): 39.9% | % labeled amount of lansoprazole remaining ([3]; Sample in water, time in SGF 15 minutes): 10.1% | % labeled amount of lansoprazole remaining ([3]; Sample in water, time in SGF 30 minutes): 4.1% | % labeled amount of lansoprazole remaining ([3]; Sample in water, time in SGF 45 minutes): 2.7% | % labeled amount of lansoprazole remaining ([3]; Sample in water, time in SGF 60 minutes): 2.0% | time stable in simulated gastric fluid ([3]; administered with carbicarb into SGF): at least 60 minutes | degradation ([3]; administered with carbicarb into SGF, 60 minutes): < 5% | drug degraded ([3]; drug constituted with carbicarb solution): 3.5% | drug degraded ([3]; drug reconstituted with water): 98% | time stable in simulated gastric fluid ([3]; formulated with carbicarb as granules (Example 4)): at least 60 minutes | time stable in simulated gastric fluid ([3]; suspension reconstituted from lansoprazole/carbicarb granules (Example 5)): at least 60 minutes | stability on storage (potency and related substances) [4]: stable
